Measurements published in US20210147932A1, “FLUORESCENT PROBES FOR QUANTIFICATION OF DNA DAMAGE AND REPAIR” (The Board of Trustees of the Leland Stanford Junior …, priority 2019, published 2021).
One block for each molecule: values may come before it.

Columns and labels:
Format in all cases: biochemical
AP-DNA = assay: Oxime formation kinetics of probe with AP-DNA; conditions: 5 μM probe; for rate of oxime formation with AP DNA: Oligo 15 20 μM, 37° C.; for reaction rate of oxime formation relative to CCVJ1 (longer linker): 20 μM AP-DNA, 50 mM Tris pH 7.0
Experimental: FIG. 3 provides representative plots for calculations of k2 for Compound (1) (CCVJ1) under various buffer conditions with oligo 15. Plots were fitted in OriginPro 8.5 according to the equation derived by Larsen et. al.^5 for second-order rate constants of oxime formation. Apparent second-order rate constants were calculated as the average of three replicates.
FIG. 5A provides fluorescence real-times responses for oxime formation under varied conditions. The Time course of oxime formation between Compound (1) (CCVJ1) (5 μM) and AP-DNA (20 μM) under varied buffer conditions (50 mM) is shown. Ionic strength adjusted to 150 mM with NaCl
Next the reaction rates with CCVJ1 were evaluated. To measure oxime formation kinetics, 5 μM CCVJ1 was reacted with 20 μM AP DNA, and the resulting fluorescence time course was used to determine second-order rate constants by nonlinear regression analysis. Tris buffer was selected since it is commonly used in glycosylase assays with a salt concentration of 100 mM NaCl.
In addition to Tris buffer, oxime formation kinetics were also measured for CCVJ1 with AP DNA in a solution of a catalytic amine buffer previously shown to accelerate oxime formation. To this end, it was employed 50 mM N,N-dimethylethylenediamine (DEDA)•HCl buffered to a pH of 7.0 in place of the above Tris buffers. […] Such rapid rates of oxime formation at neutral pH are unprecedented for unactivated aldehydes.
(§1) In addition to the 5′ and 3′ neighboring bases, studies were done of the effect of the orphaned base Z paired opposite the abasic site on the UBER probe system (FIG. 10, panels C-D). Using the sequence where X=C and Y=G, the identity was varied of the base Z opposite the AP site. […] As a result, the smaller pyrimidine bases yielded a greater fluorescence light up response than the larger purine bases. It was also observed a strong effect by the opposing base on the rate of oxime formation (FIG. 10, panel D). […] This trend is in contrast to the neighboring base effect discussed above in which stronger stacking bases accelerated the rate of oxime formation.
(§2) General procedure for creating AP site DNA: A deoxyuridine containing oligonucleotide (typically 5-20 μM) was treated with 10 U/mL E. coli UDG (New England Biolabs) for 10 minutes at 37° C. in buffer to create AP site containing DNA (see below for MALDI-TOF confirmation). The hairpin was then reacted with probe from a DMSO stock solution (final DMSO concentration <5%).
Fluorescence time courses: Unless otherwise stated, fluorescence time courses were collected on a Fluoroskan Ascent Microplate Fluorometer (Thermo Fisher Scientific) with black, non-binding 384 well plates (Greiner) at a reaction volume of 60 μL with 50 mM Tris buffer pH 7 (ionic strength adjusted to 100 mM with NaCl) with a fluorescein filter set (Ex. 485, Em. 538).

[1] = system: DNA AP site (AP site containing DNA, oligo 15); assay: Fluorescence response of probe covalently attached to the AP site of a DNA hairpin; conditions: for brightness when bound to the AP site compared to CCVJ1: Oligo 15 DNA
Experimental: FIG. 2B provides emission spectra of oligonucleotide-probe conjugates compared to the emission spectra of the free probe at 2 μM concentration in 50 mM Tris buffer pH 7.0. Excitation was at 470 nm for Compound (1) (also referred to herein as CCVJ1) and 450 nm for Compounds 8 and 9 (also referred to herein as NP1 and NP2) and Compounds 4 and 6 (also referred to herein as BD1 and BD2).
To assess the potential fluorescence response of each probe, a 17mer DNA hairpin containing a single AP site was prepared and reacted it with a 10-fold excess of probe overnight. The subsequent DNA-probe conjugates were precipitated to remove excess fluorophore and full DNA labelling was confirmed by MALDI-TOF mass spectrometry (Table 1). The reacted DNAs were re-suspended in buffer to a concentration of 2 μM and the emission spectra compared with the spectra of the free probes in solution. […] In addition to its large fluorescence response, CCVJ1 is accessed readily through a facile 4-step synthesis and has good spectral overlap with fluorescein. This makes the probe accessible to a wide range of researchers and well suited to the majority of fluorescence-based instruments.
as §1, §2
Procedure for assessing fluorescence response of probes: To assess the fluorescence response of the probes, 25 μM AP site containing DNA (oligo 15) was prepared in a 20 μL solution and allowed to react with 500 μM of each probe overnight. The DNA was then precipitated by the addition of 80 μL 0.33 M sodium acetate and 300 μL ethanol and centrifuged at 21,100 g for 1 hr at 4° C. The resulting DNA pellet was washed twice with 70% EtOH and re-suspended in buffer to a concentration of 2 μM. A portion of the DNA pellet was used for MALDI-TOF analysis. The emission spectra of the probe-oligonucleotide conjugate was measured and compared against a 2 μM solution of the free probe

AP site-containing DNA = assay: Competition for oxime formation between CCVJ1 and AP site-containing DNA; conditions: up to 500 μM linker, CCVJ1 5 μM, AP DNA 20 μM
Experimental: FIG. 6 provides effect of adding exemplary linker NH2CH2CH2ONH2 to the reaction of Compound (1) (CCVJ1) (5 μM) with AP site containing DNA (20 μM) in buffer.
FIG. 9 provides interaction between Compound (1) (CCVJ1) and DNA. […] (Ex. 485, Em. 538).
FIG. 14 provides effect of competing aldehydes/ketones on maximum fluorescence signal.
Additional experiments were performed to study the origins of this unusually rapid reaction. […] To test the effect that proximity between the alkoxyamine and planar portion of the probe had on oxime kinetics in our probes, probes were synthesized having variable-length linkers (CCVJ2 and CCVJ3) from aldehyde reactive linkers L2 and L3 respectively (FIG. 2A). […] To test the importance of a double-stranded DNA structure to the rate and fluorescence response, an AP-containing single-stranded DNA oligonucleotide was reacted with CCVJ1. At pH 7, CCVJ1 reacted with a second-order rate constant of 33 M^−1s^−1 with the single-stranded substrate, roughly 5-fold slower than a double-stranded hairpin with identical sequence context (FIG. 8).
To further explore the hypothesis that the oxime rate acceleration in these AP-site DNAs was related to base stacking interactions, the fluorescence was measured of CCVJ1 in the presence and absence of a non-lesion containing DNA hairpin.
Since the probe design involves conformational restriction to induce a light-up signal, it was hypothesized that off-target oxime formation with small molecules might induce a relatively small signal relative to DNA, thus providing a measure of selectivity in signaling. […] Another potential aspect is that ketones or aldehydes in the environment might compete with the DNA AP site to react with the aminooxy group, thereby consuming the free probe and reducing the maximum signal. Initial testing of the reactivity of CCVJ1 with AP site-containing DNA in the presence of increasing amounts of competing 2-deoxyribose, the closest small-molecule analogue to the DNA AP site. […] This was repeated this experiment with pyruvic acid, a highly reactive ketone and a common cellular metabolite.

OGG1 = target: T1, OGG1 (Homo sapiens, UniProt O15527); assay: OGG1 activity in MCF7 lysates with CCVJ1; conditions: MCF7 lysate 0.2 mg/mL, 4 h incubation, 25 μM CCVJ1
T1 construct: host or cells: MCF-7 whole cell lysate
Experimental: FIG. 20 provides fluorescence measurement of MCF7 cell lysates (0.2 mg/mL) with 25 μM Compound (1) (CCVJ1) following a 4-hour incubation with 5 μM of an OGG1 hairpin substrate. The inhibitor SU0268 was used to abrogate OGG1 activity. Error bars represent standard deviation of three replicates.
Encouraged by the results, whether the UBER probe could detect endogenous glycosylase activity was tested from a more challenging target such as OGG1. It is well established that the turnover number of UNG is quite high (˜1-10 s^−1)^5 while the turnover number for many other glycosylases is quite low (0.001-0.1 s^−1). Additionally, most glycosylases, including OGG1, have very low basal expression levels in healthy cells. Given these facts, previous attempts to detect OGG1 activity in lysates have relied on a multistep signal amplification process or extended reaction times (24-48 hrs) to yield signal. […] In this case, the majority of the background signal observed was attributed to intercalation of probe into unreacted hairpin as well as genomic DNA.
(§3) Cell Lysate Experiments: HeLa or MCF-7 whole cell lysates (Santa Cruz Biotech) were used without further preparation. […] Fluorescence intensity was monitored over the course of 4 hours at 37° C.

UNG [2] = target: T2, UNG (Homo sapiens, UniProt P13051); assay: UGI IC50 measurement in UBER probe coupled assay; set-up: purchased OriGene; conditions: UNG 5 nM, UGI 0.3 to 30 nM, initial rates after 25 minute delay, triplicate
Experimental: FIG. 15, panels A-G provides quantitative coupled assays using Compound (1) (CCJV1). Shown are data from reaction of lesion containing substrates with UNG and SMUG1 (5 nM) (panel A), MPG (100 nM) (panel B), NTH1 (500 nM) (panel C), OGG1 (100 nM) in real-time (panel D) with lesion containing DNA (2 μM) and CCVJ1 (20 μM) (panels A, B and D) or lesion containing DNA (60 μM) and CCVJ1 (20 μM) […]. […] Delay time tss of 25 minutes indicated with dotted line.
Based on the results of our neighboring base effect study, several glycosylase oligonucleotide substrates were purchased or prepared in which the identity of the base lesion X was varied to correspond to the known activities of different target glycosylases (FIG. 15, panel E). For these studies human enzymes SMUG1/UNG, OGG1, MPG and NTH1, were chosen which represent a diverse array of human glycosylases. […] Assays were carried out in a 60 μL volume in a 384 well format on a microplate reader using a fluorescein filter set. For each enzyme, it was possible to observe a robust fluorescence signal (FIG. 15, panels A-D).
To test the utility of the probe coupled assay for characterizing inhibitors, it was measured the IC50 value of the UNG inhibitor UGI (FIG. 15, panels F-G). […] In all cases, the z-factor of the assay was calculated to be >0.95, well above the threshold necessary for high throughput screening. […]

UNG [3] = target: T2, UNG; assay: UNG activity in HeLa cell lysate with CCVJ1; set-up: profile endogenous glycosylase activity in cell lysates; host or cells: HeLa whole cell lysate; conditions: 1 U/mL UGI, 0.2 mg/mL HeLa lysate, 5 μM hairpin, 25 μM CCVJ1
Experimental: FIG. 19, panels A-B illustrates applications of an exemplary probe for measuring multiple repair activities in cell lysates. […] The inhibitor UGI was used at a concentration of 1 U/mL to completely abolish UNG activity. […] Activity was quantified by measuring initial rate velocity using 25 μM CCVJ1 with lysate (0.2 mg/mL) and 5 μM of UNG hairpin substrate.
It was first tested whether the UBER probe's ability to report on UNG activity in whole cell lysates using the previously described UNG hairpin substrate (FIG. 19, panel A). […] To confirm that the fluorescence response originated from endogenous UNG activity and not off-target binding with proteins or spontaneous depurination, lysate was treated with CCVJ1 and a control hairpin in which the lesion had been replaced by an undamaged T:A base pair. Importantly, the control hairpin yielded no fluorescence response indicating a low degree of false positive signal. […] CCVJ1 appears to represent the first fluorogenic probe to measure real-time UNG activity in cell lysates.
as §3

T2 sequence (P13051 whole entry): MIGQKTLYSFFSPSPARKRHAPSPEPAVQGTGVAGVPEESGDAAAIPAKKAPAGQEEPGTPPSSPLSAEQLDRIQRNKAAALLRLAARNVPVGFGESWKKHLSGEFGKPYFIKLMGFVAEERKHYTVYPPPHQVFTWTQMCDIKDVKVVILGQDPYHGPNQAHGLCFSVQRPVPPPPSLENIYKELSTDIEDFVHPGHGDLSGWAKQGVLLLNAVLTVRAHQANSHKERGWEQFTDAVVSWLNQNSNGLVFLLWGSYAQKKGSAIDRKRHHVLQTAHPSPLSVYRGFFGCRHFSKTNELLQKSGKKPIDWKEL
T1 sequence (O15527 whole entry): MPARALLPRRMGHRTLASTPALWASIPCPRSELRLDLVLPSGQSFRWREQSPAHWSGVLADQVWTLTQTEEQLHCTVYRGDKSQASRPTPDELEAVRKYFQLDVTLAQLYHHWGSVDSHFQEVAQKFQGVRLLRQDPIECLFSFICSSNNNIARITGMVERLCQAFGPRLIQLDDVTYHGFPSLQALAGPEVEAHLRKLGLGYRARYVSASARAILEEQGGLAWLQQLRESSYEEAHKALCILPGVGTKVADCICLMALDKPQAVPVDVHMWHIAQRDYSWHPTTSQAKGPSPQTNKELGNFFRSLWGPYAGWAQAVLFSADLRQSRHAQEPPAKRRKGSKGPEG

Molecule: CN(CCON)c1ccc(S(=O)(=O)N(C)C)c2nonc12 [BD2]
rate of oxime formation with AP DNA (AP-DNA): accelerated rates of oxime formation
fluorescence response with AP DNA [1]: substantial fluorescence responses

Molecule: N#C/C(=C\c1cc2c3c(c1)CCCN3CCC2)C(=O)NCCOCCON [CCVJ2]
reaction rate of oxime formation relative to CCVJ1 (longer linker) (AP-DNA): slowed the reaction rate considerably
brightness when bound to the AP site compared to CCVJ1 [1]: diminished compared to that of CCVJ1

Molecule: CN(CCON)c1ccc2c3c(cccc13)C(=O)N(CCC(=O)O)C2=O [NP1]
rate of oxime formation with AP DNA (AP-DNA): accelerated rates of oxime formation
fluorescence response with AP DNA [1]: substantial fluorescence responses

Molecule: N#C/C(=C\c1cc2c3c(c1)CCCN3CCC2)C(=O)NCCOCCOCCON [CCVJ3]
reaction rate of oxime formation relative to CCVJ1 (longer linker) (AP-DNA): slowed the reaction rate considerably
brightness when bound to the AP site compared to CCVJ1 [1]: diminished compared to that of CCVJ1

Molecule: NCCON [Compound L1, NH2CH2CH2ONH2]
effect as competing alpha nucleophile on reaction of CCVJ1 with AP DNA (AP site-containing DNA): no effect
effect as competing alpha nucleophile on reaction of CCVJ1 with AP DNA (AP site-containing DNA; listed as NH2CH2CH2ONH2): does not significantly compete with CCVJ1 for oxime formation

Molecule: NC(=O)c1cccc(-c2ccc(S(=O)(=O)Nc3ccc4c(c3)N(C(=O)C3CC3)CCC4)cc2)c1 [SU0268]
effect of inhibitor on OGG1 repair activity in lysate (OGG1): completely abolished OGG1 repair activity

Molecule: CN(C)c1ccc(S(=O)(=O)N(C)CCON)c2nonc12 [BD1]
rate of oxime formation with AP DNA (AP-DNA): accelerated rates of oxime formation
fluorescence response with AP DNA [1]: substantial fluorescence responses

IC50 (UNG [2]): 7.53 ± 0.44 nM
B1: UGI: the UNG inhibitor UGI; tight 1:1 binding stoichiometry; protein inhibitor (protein, UniProt P14739 1-84, looked up)
Uracil-DNA glycosylase …: MTNLSDIIEKETGKQLVIQESILMLPEEVEEVIGNKPESDILVHTAYDESTDENVMLLTSDAPEYKPWALVIQDSNGENKIKML
effect of inhibitor on fluorescence response (UNG activity) in lysate (UNG [3]): completely ablated the fluorescence response
